Molecular target: Human thrombin (Homo sapiens (Human), UniProt P00734)
Experiment: Thrombin protease activity inhibition assay (chromogenic substrate S-2238)
Type: biochemical
Conditions: 3 nM thrombin, 125 μM S-2238, 10 min pre-incubation, RT
In short: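 Ten-point, three-fold serial dilutions of compound tested against 3 nM enzyme at RT in Tris buffer (0.05 M, pH 7.4) with 0.015 M NaCl and 0.01% PEG-8000.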

Row | SMILES | IC50
1 | O=c1c(-c2cc(NCc3ccc(Cl)s3)[nH]n2)cccn1Cc1ccc(Cl)cc1 [Cmpd 38, 1-[(4-chlorophenyl)methyl]-3-(5-[(5-chlorothiophen-2-yl)methyl]amino-1H-pyrazol-3-yl)-1,2-dihydropyridin-2-one] | > 100 µM
2 | O=C(c1ccccc1)n1nc(-c2cccn(Cc3ccncc3)c2=O)cc1NCc1ccc(Cl)s1 [Cmpd 68, 3-(1-benzoyl-5-[(5-chlorothiophen-2-yl)methyl]amino-1H-pyrazol-3-yl)-1-(pyridin-4-ylmethyl)-1,2-dihydropyridin-2-one] | > 100 µM
3 | O=c1c(-c2cc(NCc3ccc(Cl)s3)n[nH]2)cccn1Cc1cccnc1 [Cmpd 228, 3-(5-[(5-chlorothiophen-2-yl)methyl]amino-1H-pyrazol-3-yl)-1-(pyridin-3-ylmethyl)-1,2-dihydropyridin-2-one] | 1 to 10 µM
4 | O=c1c(-c2cc(NCc3ccc(Cl)s3)n[nH]2)cccn1Cc1cccs1 [Cmpd 231, 3-(5-[(5-chlorothiophen-2-yl)methyl]amino-1H-pyrazol-3-yl)-1-(thiophen-2-ylmethyl)-1,2-dihydropyridin-2-one] | 1 to 10 µM
5 | CC1(C(=O)n2nc(-c3cccn(CCN4CCOCC4)c3=O)cc2NCc2ccc(Cl)s2)CCOCC1 [Cmpd 159, 3-(5-[(5-chlorothiophen-2-yl)methyl]amino-1-[(4-methyloxan-4-yl)carbonyl]-1H-pyrazol-3-yl)-1-[2-(morpholin-4-yl)ethyl]-1,2-dihydropyridin-2-one] | > 100 µM
6 | O=C(Cn1cccc(-c2cc(NCc3ccc(Cl)s3)n[nH]2)c1=O)N1CCOCC1 [Cmpd 233, 3-(5-[(5-chlorothiophen-2-yl)methyl]amino-1H-pyrazol-3-yl)-1-[2-(morpholin-4-yl)-2-oxoethyl]-1,2-dihydropyridin-2-one] | 1 to 10 µM
7 | O=c1c(-c2cc(NCc3ccc(Cl)s3)[nH]n2)cccn1CCc1ccccc1 [Cmpd 221, 3-(5-[(5-chlorothiophen-2-yl)methyl]amino-1H-pyrazol-3-yl)-1-(2-phenylethyl)-1,2-dihydropyridin-2-one] | 10 to 100 µM
8 | O=c1c(-c2cc(NCc3ccc(Cl)s3)[nH]n2)cccn1Cc1cccnn1 [Cmpd 226, 3-(5-[(5-chlorothiophen-2-yl)methyl]amino-1H-pyrazol-3-yl)-1-(pyridazin-3-ylmethyl)-1,2-dihydropyridin-2-one] | 10 to 100 µM
9 | O=C(Cn1cccc(-c2cc(NCc3ccc(Cl)s3)n(C(=O)c3ccoc3)n2)c1=O)N1CCOCC1 [Cmpd 180, 3-(5-[(5-chlorothiophen-2-yl)methyl]amino-1-[(furan-3-yl)carbonyl]-1H-pyrazol-3-yl)-1-[2-(morpholin-4-yl)-2-oxoethyl]-1,2-dihydropyridin-2-one] | < 0.1 µM
10 | O=C(c1ccc(N2CCOCC2)cc1)n1nc(-c2cccn(Cc3ccccn3)c2=O)cc1NCc1ccc(Cl)s1 [Cmpd 212, 3-(5-[(5-chlorothiophen-2-yl)methyl]amino-1-[4-(morpholin-4-yl)phenyl]carbonyl-1H-pyrazol-3-yl)-1-(pyridin-2-ylmethyl)-1,2-dihydropyridin-2-one] | < 0.1 µM
11 | COc1ccccc1C(=O)n1nc(-c2cccn(Cc3ccccn3)c2=O)cc1NCc1ccc(Cl)s1 [Cmpd 139, 3-(5-[(5-chlorothiophen-2-yl)methyl]amino-1-[(2-methoxyphenyl)carbonyl]-1H-pyrazol-3-yl)-1-(pyridin-2-ylmethyl)-1,2-dihydropyridin-2-one] | < 0.1 µM
12 | CC(C)(C)OC(=O)Cn1cccc(-c2cc(NCc3ccc(Cl)s3)n(C(=O)C(C)(C)C)n2)c1=O [Cmpd 261, tert-butyl 2-[3-(5-[(5-chlorothiophen-2-yl)methyl]amino-1-(2,2-dimethylpropanoyl)-1H-pyrazol-3-yl)-2-oxo-1,2-dihydropyridin-1-yl]acetate] | < 0.1 µM
13 | CC(C)(C)C(=O)n1nc(-c2cccn(CC#N)c2=O)cc1NCc1ccc(Cl)s1 [Cmpd 56, 2-[3-(5-[(5-chlorothiophen-2-yl)methyl]amino-1-(2,2-dimethylpropanoyl)-1H-pyrazol-3-yl)-2-oxo-1,2-dihydropyridin-1-yl]acetonitrile] | < 0.1 µM
14 | O=C(c1ccccc1)n1nc(-c2cccn(Cc3cccnn3)c2=O)cc1NCc1ccc(Cl)s1 [Cmpd 65, 3-(1-benzoyl-5-[(5-chlorothiophen-2-yl)methyl]amino-1H-pyrazol-3-yl)-1-(pyridazin-3-ylmethyl)-1,2-dihydropyridin-2-one] | < 0.1 µM

Further lines, results first:

Row | IC50 | SMILES
15 | < 0.1 µM | O=C(c1cccc2c1OCCO2)n1nc(-c2ccc[nH]c2=O)cc1NCc1ccc(Cl)s1 [Cmpd 108, 3-(5-[(5-chlorothiophen-2-yl)methyl]amino-1-[(2,3-dihydro-1,4-benzodioxin-5-yl)carbonyl]-1H-pyrazol-3-yl)-1,2-dihydropyridin-2-one]
16 | < 0.1 µM | CC1(C(=O)n2nc(-c3cccn(Cc4ccncc4)c3=O)cc2NCc2ccc(Cl)s2)CCOCC1 [Cmpd 155, 3-(5-[(5-chlorothiophen-2-yl)methyl]amino-1-[(4-methyloxan-4-yl)carbonyl]-1H-pyrazol-3-yl)-1-(pyridin-4-ylmethyl)-1,2-dihydropyridin-2-one]
17 | < 0.1 µM | O=C(c1ccccc1Cl)n1nc(-c2cccn(Cc3cccnn3)c2=O)cc1NCc1ccc(Cl)s1 [Cmpd 245, 3-1-[(2-chlorophenyl)carbonyl]-5-[(5-chlorothiophen-2-yl)methyl]amino-1H-pyrazol-3-yl-1-(pyridazin-3-ylmethyl)-1,2-dihydropyridin-2-one]
18 | < 0.1 µM | CC(C)(C)C(=O)n1nc(-c2cccn(Cc3cccc(Cl)c3)c2=O)cc1NCc1ccc(Cl)s1 [Cmpd 31, 1-[(3-chlorophenyl)methyl]-3-(5-[(5-chlorothiophen-2-yl)methyl]amino-1-(2,2-dimethylpropanoyl)-1H-pyrazol-3-yl)-1,2-dihydropyridin-2-one]
19 | < 0.1 µM | O=C(c1ccoc1)n1nc(-c2cccn(Cc3cccnc3)c2=O)cc1NCc1ccc(Cl)s1 [Cmpd 177, 3-(5-[(5-chlorothiophen-2-yl)methyl]amino-1-[(furan-3-yl)carbonyl]-1H-pyrazol-3-yl)-1-(pyridin-3-ylmethyl)-1,2-dihydropyridin-2-one]
20 | < 0.1 µM | COc1ccccc1C(=O)n1nc(-c2cccn(CCc3ccccc3)c2=O)cc1NCc1ccc(Cl)s1 [Cmpd 134, 3-(5-[(5-chlorothiophen-2-yl)methyl]amino-1-[(2-methoxyphenyl)carbonyl]-1H-pyrazol-3-yl)-1-(2-phenylethyl)-1,2-dihydropyridin-2-one]
21 | < 0.1 µM | Cn1cccc(-c2cc(NCc3ccc(Cl)s3)n(C(=O)c3cccc4c3OCCO4)n2)c1=O [Cmpd 120, 3-(5-[(5-chlorothiophen-2-yl)methyl]amino-1-[(2,3-dihydro-1,4-benzodioxin-5-yl)carbonyl]-1H-pyrazol-3-yl)-1-methyl-1,2-dihydropyridin-2-one]
22 | < 0.1 µM | O=C(c1cccc2c1OCCO2)n1nc(-c2cccn(CCN3CCOCC3)c2=O)cc1NCc1ccc(Cl)s1 [Cmpd 119, 3-(5-[(5-chlorothiophen-2-yl)methyl]amino-1-[(2,3-dihydro-1,4-benzodioxin-5-yl)carbonyl]-1H-pyrazol-3-yl)-1-[2-(morpholin-4-yl)ethyl]-1,2-dihydropyridin-2-one]
23 | < 0.1 µM | COc1ccccc1C(=O)n1nc(-c2cccn(CC#N)c2=O)cc1NCc1ccc(Cl)s1 [Cmpd 57, 2-[3-(5-[(5-chlorothiophen-2-yl)methyl]amino-1-[(2-methoxyphenyl)carbonyl]-1H-pyrazol-3-yl)-2-oxo-1,2-dihydropyridin-1-yl]acetonitrile]
24 | < 0.1 µM | O=C(c1ccco1)n1nc(-c2cccn(Cc3cccnc3)c2=O)cc1NCc1ccc(Cl)s1 [Cmpd 165, 3-(5-[(5-chlorothiophen-2-yl)methyl]amino-1-[(furan-2-yl)carbonyl]-1H-pyrazol-3-yl)-1-(pyridin-3-ylmethyl)-1,2-dihydropyridin-2-one]
25 | < 0.1 µM | O=C(c1cccs1)n1nc(-c2cccn(Cc3ncccn3)c2=O)cc1NCc1ccc(Cl)s1 [Cmpd 189, 3-(5-[(5-chlorothiophen-2-yl)methyl]amino-1-[(thiophen-2-yl)carbonyl]-1H-pyrazol-3-yl)-1-(pyrimidin-2-ylmethyl)-1,2-dihydropyridin-2-one]
26 | < 0.1 µM | COc1ccc(C(=O)n2nc(-c3cccn(Cc4ccsc4)c3=O)cc2NCc2ccc(Cl)s2)c(OC)c1 [Cmpd 130, 3-(5-[(5-chlorothiophen-2-yl)methyl]amino-1-[(2,4-dimethoxyphenyl)carbonyl]-1H-pyrazol-3-yl)-1-(thiophen-3-ylmethyl)-1,2-dihydropyridin-2-one]
27 | < 0.1 µM | N#CCn1cccc(-c2cc(NCc3ccc(Cl)s3)n(C(=O)c3ccoc3)n2)c1=O [Cmpd 58, 2-[3-(5-[(5-chlorothiophen-2-yl)methyl]amino-1-[(furan-3-yl)carbonyl]-1H-pyrazol-3-yl)-2-oxo-1,2-dihydropyridin-1-yl]acetonitrile]
28 | < 0.1 µM | O=C(c1ccsc1)n1nc(-c2ccc[nH]c2=O)cc1NCc1ccc(Cl)s1 [Cmpd 193, 3-(5-[(5-chlorothiophen-2-yl)methyl]amino-1-[(thiophen-3-yl)carbonyl]-1H-pyrazol-3-yl)-1,2-dihydropyridin-2-one]
29 | < 0.1 µM | O=C(c1ccoc1)n1nc(-c2cccn(Cc3ccc(Cl)cc3)c2=O)cc1NCc1ccc(Cl)s1 [Cmpd 37, 1-[(4-chlorophenyl)methyl]-3-(5-[(5-chlorothiophen-2-yl)methyl]amino-1-[(furan-3-yl)carbonyl]-1H-pyrazol-3-yl)-1,2-dihydropyridin-2-one]
30 | < 0.1 µM | O=C(c1ccccc1)n1nc(-c2cccn(Cc3ccccn3)c2=O)cc1NCc1ccc(Cl)s1 [Cmpd 66, 3-(1-benzoyl-5-[(5-chlorothiophen-2-yl)methyl]amino-1H-pyrazol-3-yl)-1-(pyridin-2-ylmethyl)-1,2-dihydropyridin-2-one]
31 | < 0.1 µM | O=C(c1ccccc1)n1nc(-c2cccn(Cc3ccsc3)c2=O)cc1NCc1ccc(Cl)s1 [Cmpd 71, 3-(1-benzoyl-5-[(5-chlorothiophen-2-yl)methyl]amino-1H-pyrazol-3-yl)-1-(thiophen-3-ylmethyl)-1,2-dihydropyridin-2-one]
